Experiment [1] deals with T1, PARG (Homo sapiens, UniProt Q86W56). Put plainly: Inhibition of PARG cellular assay (PAR foci in HeLa cells after MMS). It is filed as cell-based. More on the design: endogenous in cells; host or cells: HeLa. Conditions: compound 1 h then MMS 1 h. In short, it runs like this:
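HeLa cells pretreated with compound for 1 h, then given MMS for a further 1 h, fixed and immunostained for PAR polymer. High-content imaging quantified nuclear PAR foci intensity (PAR Foci IC50) and percent cells with foci signal >1.3 (PAR % positive IC50).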

Experiment [2] has as its target T1, PARG. Nature of the experiment: Inhibition of PARG enzymatic assay (TR-FRET enzymatic IC50 assay). It is filed as biochemical. More on the design: purchased Peak Proteins. Particulars: hPARG 250 pM, biotinylated-PARylated PARP substrate 30 nM. An outline of the steps:
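Compound preincubated 1 h with 250 pM His-tagged hPARG, then 30 nM biotinylated PARylated hPARP1 substrate added for 10 min; buffer 50 mM Tris-HCl pH 7.4, EDTA/EGTA, 1 mM DTT, 23° C. TR-FRET read after 1 h with anti-His ULight antibody and streptavidin-europium; inhibition scaled between DMSO and no-enzyme controls.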

Experiment [3] relates to HCC1806-XRCC1 KD (knock down) cells. Nature of the experiment: Cellular viability assay (Cell Titer-Glo). It is filed as cell-based. Conditions: 96 h, HCC1806-shXRCC1 cells, 4 days of incubation, read-out: PARGi cell viability. The procedure: HCC1806-XRCC1 KD (knock down) cells were plated at 2000 cells/well in 96-well white plates with clear flat bottom. After 24 hours, the compounds of the disclosure were added starting at 30 μM for a 9-point dose response curve at 1:3 dilution. The compounds of the disclosure were added by Tecan digital dispenser excluding the outermost wells of the plate. All treatments were done in duplicates. After 4 days of incubation, 50 ul of Cell Titer-Glo (Promega) was added per well. After incubation with the reagent for 15 minutes, luminescence was read using a plate reader (TECAN). Average values of DMSO treated wells in a plate was calculated. All data points were normalized to that of the average DMSO value. The % of control for each sample compared to DMSO treated control samples. Curves are fit as % of control vs. log [compound concentration] using a 4 parameter inhibition model (Levenberg-Marquardt algorithm):
Fit=(A+((B−A)/(1+((C/x)^D))))
A general note: In ATP-based viability assays light output follows the ATP content of the culture.

T1 sequence (Q86W56 whole entry): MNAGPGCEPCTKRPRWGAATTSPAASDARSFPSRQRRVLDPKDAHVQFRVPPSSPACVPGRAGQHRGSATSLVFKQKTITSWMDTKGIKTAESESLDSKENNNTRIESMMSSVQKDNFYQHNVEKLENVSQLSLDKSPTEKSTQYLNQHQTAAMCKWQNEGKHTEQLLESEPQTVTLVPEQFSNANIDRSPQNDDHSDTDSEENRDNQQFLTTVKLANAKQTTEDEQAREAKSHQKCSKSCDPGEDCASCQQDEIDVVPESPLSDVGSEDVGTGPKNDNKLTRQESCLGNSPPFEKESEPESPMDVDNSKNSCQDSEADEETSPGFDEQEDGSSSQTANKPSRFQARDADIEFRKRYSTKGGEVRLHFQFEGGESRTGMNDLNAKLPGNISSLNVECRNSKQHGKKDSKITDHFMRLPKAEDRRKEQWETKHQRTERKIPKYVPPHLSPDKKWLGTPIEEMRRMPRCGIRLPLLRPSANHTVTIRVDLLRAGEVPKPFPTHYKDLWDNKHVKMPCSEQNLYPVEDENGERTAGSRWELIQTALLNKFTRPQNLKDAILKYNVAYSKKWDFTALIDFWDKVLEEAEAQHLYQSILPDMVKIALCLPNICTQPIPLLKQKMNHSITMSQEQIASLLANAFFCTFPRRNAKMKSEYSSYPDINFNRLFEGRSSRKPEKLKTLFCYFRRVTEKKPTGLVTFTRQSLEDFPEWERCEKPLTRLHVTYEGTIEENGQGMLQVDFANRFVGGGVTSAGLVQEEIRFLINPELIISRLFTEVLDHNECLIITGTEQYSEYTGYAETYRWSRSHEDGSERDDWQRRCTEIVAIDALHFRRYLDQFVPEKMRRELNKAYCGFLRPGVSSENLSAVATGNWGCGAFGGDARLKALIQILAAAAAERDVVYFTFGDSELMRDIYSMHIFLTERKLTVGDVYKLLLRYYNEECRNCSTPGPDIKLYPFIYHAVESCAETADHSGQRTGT

As for `CC1(NS(=O)(=O)c2cc(N3CCC4(CC3)COC4)c3cnn(-c4nnc(C(F)F)s4)c3c2)CC1` [Example 23, ({1-[5-(difluoromethyl)(1,3,4-thiadiazol-2-yl)]-4-(2-oxa-7-azaspiro[3.5]non-7-yl)(1H-indazol-6-yl)}sulfonyl)(methylcyclopropyl)amine], the IC50 was not above 100 nM in experiment [1], not above 100 nM in experiment [2] and less than 1000 nM in experiment [3].
Regarding `CN(C)C(=O)N1CCN(c2cc(S(=O)(=O)NC3(C)CC3)cc3c2cnn3-c2nnc(C(F)F)s2)CC1` [Example 24, [4-(1-[5-(difluoromethyl)(1,3,4-thiadiazol-2-yl)]-6-{[(methylcyclopropyl)amino]sulfonyl}(1H-indazol-4-yl))piperazinyl]-N,N-dimethylcarboxamide], the IC50 in experiment [1] is not above 100 nM; in experiment [2], not above 100 nM; in experiment [3] it was less than 1000 nM.
Turning to `N#CC1(NS(=O)(=O)c2cc(N3CCC4(CC3)COC4)c3cnn(-c4nnc(C(F)F)s4)c3c2)CC1` [Example 25, 1-[({1-[5-(difluoromethyl)(1,3,4-thiadiazol-2-yl)]-4-(2-oxa-7-azaspiro[3.5]non-7-yl)-1H-indazol-6-yl}sulfonyl)amino]cyclopropanecarbonitrile], the IC50 was not above 100 nM in experiment [1], not above 100 nM in experiment [2] and less than 1000 nM in experiment [3].
Consider `C[C@@H]1CN(c2cc(S(=O)(=O)NC3(C#N)CC3)cc3c2cnn3-c2nnc(C(F)F)s2)CCO1` [Example 26, 1-[({4-((2R)-2-methylmorpholin-4-yl)-1-[5-(difluoromethyl)(1,3,4-thiadiazol-2-yl)]-1H-indazol-6-yl}sulfonyl)amino]cyclopropanecarbonitrile], for which the IC50 in experiment [1] is 100 to 300 nM; in experiment [2], not above 100 nM; in experiment [3], 1000 to 10000 nM.
The corresponding values for `N#CC1(NS(=O)(=O)c2cc(N3CCC(O)CC3)c3cnn(-c4nnc(C(F)F)s4)c3c2)CC1` [Example 27, 1-[({1-[5-(difluoromethyl)(1,3,4-thiadiazol-2-yl)]-4-(4-hydroxypiperidyl)-1H-indazol-6-yl}sulfonyl)amino]cyclopropanecarbonitrile] are 300 to 1000 nM, not above 100 nM and 1000 to 10000 nM.
The like results for `CC(C)C(=O)N1CCN(c2cc(S(=O)(=O)NC3(C#N)CC3)cc3c2ccn3-c2nnc(C(F)F)s2)CC1` [Example 28, 1-[({1-[5-(difluoromethyl)(1,3,4-thiadiazol-2-yl)]-4-[4-(2-methylpropanoyl)piperazinyl]indol-6-yl}sulfonyl)amino]cyclopropanecarbonitrile] were, in that order, not above 100 nM, not above 100 nM and less than 1000 nM.
The corresponding values for `CCN(C)C(=O)N1CCN(c2cc(S(=O)(=O)NC3(C#N)CC3)cc3c2cnn3-c2nnc(C(F)F)s2)CC1` [Example 32, [4-(1-[5-(difluoromethyl)(1,3,4-thiadiazol-2-yl)]-6-{[(cyanocyclopropyl)amino]sulfonyl}(1H-indazol-4-yl))piperazinyl]-N-ethyl-N-methylcarboxamide] are not above 100 nM, not above 100 nM and less than 1000 nM.
For `N#CC1(NS(=O)(=O)c2cc(N3CCN(C(=O)N4CCC4)CC3)c3cnn(-c4nnc(C(F)F)s4)c3c2)CC1` [Example 33, 1-[({4-[4-(azetidinylcarbonyl)piperazinyl]-1-[5-(difluoromethyl)(1,3,4-thiadiazol-2-yl)]-1H-indazol-6-yl}sulfonyl)amino]cyclopropanecarbonitrile], the IC50 was not above 100 nM in experiment [1], not above 100 nM in experiment [2] and 1000 to 10000 nM in experiment [3].
With `C[C@@H]1CN(c2cc(S(=O)(=O)NC3(C#N)CC3)cc3c2cnn3-c2nnc(C(F)F)s2)CCN1C(=O)N(C)C` [Example 35, [(2R)-4-(1-[5-(difluoromethyl)(1,3,4-thiadiazol-2-yl)]-6-{[(cyanocyclopropyl)amino]sulfonyl}(1H-indazol-4-yl))-2-methylpiperazinyl]-N,N-dimethylcarboxamide], the IC50 in experiment [1] is not above 100 nM; in experiment [2], not above 100 nM; in experiment [3], less than 1000 nM.
With `CC(C)C(=O)N1CCN(c2cc(S(=O)(=O)NC3(C#N)CC3)cc3c2cnn3-c2nnc(C(F)F)s2)CC1` [Example 38, 1-[({1-[5-(difluoromethyl)(1,3,4-thiadiazol-2-yl)]-4-[4-(2-methylpropanoyl)piperazinyl]-1H-indazol-6-yl}sulfonyl)amino]cyclopropanecarbonitrile], the IC50 was not above 100 nM in experiment [1], not above 100 nM in experiment [2] and less than 1000 nM in experiment [3].
As for `CC(C)(C)C(=O)N1CCN(c2cc(S(=O)(=O)NC3(C#N)CC3)cc3c2cnn3-c2nnc(C(F)F)s2)CC1` [Example 39, 1-[({1-[5-(difluoromethyl)(1,3,4-thiadiazol-2-yl)]-4-[4-(2,2-dimethylpropanoyl)piperazinyl]-1H-indazol-6-yl}sulfonyl)amino]cyclopropanecarbonitrile], the IC50 in experiment [1] was not above 100 nM; in experiment [2], not above 100 nM; in experiment [3], less than 1000 nM.
As for `CNC(=O)C1CCN(c2cc(S(=O)(=O)NC3(C#N)CC3)cc3c2cnn3-c2nnc(C(F)F)s2)CC1` [Example 40, [1-(1-[5-(difluoromethyl)(1,3,4-thiadiazol-2-yl)]-6-{[(cyanocyclopropyl)amino]sulfonyl}(1H-indazol-4-yl))(4-piperidyl)]-N-methylcarboxamide], the IC50 in experiment [1] is 1000 to 10000 nM; in experiment [2] it was not above 100 nM; in experiment [3], 10000 to 20000 nM.
The like results for `N#CC1(NS(=O)(=O)c2cc(N3CCC4(CCO4)CC3)c3cnn(-c4nnc(C(F)F)s4)c3c2)CC1` [Example 41, 1-[({1-[5-(difluoromethyl)(1,3,4-thiadiazol-2-yl)]-4-(1-oxa-7-azaspiro[3.5]non-7-yl)-1H-indazol-6-yl}sulfonyl)amino]cyclopropanecarbonitrile] were, in that order, 300 to 1000 nM, 100 to 300 nM and 1000 to 10000 nM.
On to `CN(C)C(=O)N1CCN(c2cc(S(=O)(=O)NC3(C#N)CC3)cc3c2cnn3-c2nnc(C(F)F)s2)CC1` [Example 43, [4-(1-[5-(difluoromethyl)(1,3,4-thiadiazol-2-yl)]-6-{[(cyanocyclopropyl)amino]sulfonyl}(1H-indazol-4-yl))piperazinyl]-N,N-dimethylcarboxamide], for which the IC50 is not above 100 nM in experiment [1], not above 100 nM in experiment [2] and less than 1000 nM in experiment [3].
In the case of `N#CC1(NS(=O)(=O)c2cc(N3CCC4(CCCO4)CC3)c3cnn(-c4nnc(C(F)F)s4)c3c2)CC1` [Example 44, 1-[({1-[5-(difluoromethyl)(1,3,4-thiadiazol-2-yl)]-4-(1-oxa-8-azaspiro[4.5]dec-8-yl)-1H-indazol-6-yl}sulfonyl)amino]cyclopropanecarbonitrile], the IC50 in experiment [1] is 1000 to 10000 nM; in experiment [2], 300 to 1000 nM; in experiment [3] it was 1000 to 10000 nM.
For `N#CC1(NS(=O)(=O)c2cc(N3CC4(COC4)C3)c3cnn(-c4nnc(C(F)F)s4)c3c2)CC1` [Example 45, 1-[({1-[5-(difluoromethyl)(1,3,4-thiadiazol-2-yl)]-4-(6-oxa-2-azaspiro[3.3]hept-2-yl)-1H-indazol-6-yl}sulfonyl)amino]cyclopropanecarbonitrile], the values for the IC50 in experiment [1], in experiment [2] and in experiment [3] were 300 to 1000 nM, 100 to 300 nM and 20000 to 30000 nM, respectively.
Consider `CN1CCC2(CCN(c3cc(S(=O)(=O)NC4(C#N)CC4)cc4c3cnn4-c3nnc(C(F)F)s3)CC2)C1` [Example 46, 1-[({1-[5-(difluoromethyl)(1,3,4-thiadiazol-2-yl)]-4-(2-methyl-2,8-diazaspiro[4.5]dec-8-yl)-1H-indazol-6-yl}sulfonyl)amino]cyclopropanecarbonitrile], for which the IC50 was in the range of 1000 to 10000 nM in experiment [1], 100 to 300 nM in experiment [2] and 1000 to 10000 nM in experiment [3].
For `N#CC1(NS(=O)(=O)c2cc(N3CCC(CO)CC3)c3cnn(-c4nnc(C(F)F)s4)c3c2)CC1` [Example 47, 1-[({1-[5-(difluoromethyl)(1,3,4-thiadiazol-2-yl)]-4-[4-(hydroxymethyl)piperidyl]-1H-indazol-6-yl}sulfonyl)amino]cyclopropanecarbonitrile], the values for the IC50 in experiment [1], in experiment [2] and in experiment [3] were 300 to 1000 nM, not above 100 nM and 1000 to 10000 nM, respectively.
The corresponding values for `N#CC1(NS(=O)(=O)c2cc(N3C[C@H]4COC[C@H]4C3)c3cnn(-c4nnc(C(F)F)s4)c3c2)CC1` [Example 48, 1-[({4-((1S,5R)-7-oxa-3-azabicyclo[3.3.0]oct-3-yl)-1-[5-(difluoromethyl)(1,3,4-thiadiazol-2-yl)]-1H-indazol-6-yl}sulfonyl)amino]cyclopropanecarbonitrile] are 300 to 1000 nM, 100 to 300 nM and 1000 to 10000 nM.

The values are drawn from patent US20220389003A1, “4-SUBSTITUTED INDOLE AND INDAZOLE SULFONAMIDO DERIVATIVES AS PARG INHIBITORS” (IDEAYA BIOSCIENCES, INC., priority 2019, published 2022).
